The values below come from patent US20150010630A1, “FUNCTIONALIZATION OF BIOMATERIALS TO CONTROL REGENERATION AND INFLAMMATION RESPONSES” (TRUSTEES OF TUFTS COLLEGE, priority 2011, published 2015).

For data set [1], the system named is THP1 macrophages. In words: RT-PCR gene expression (TNF-α, TGF-β, IL-10) of THP1 macrophages on SP1 particles.
Data set [2] has as its system THP1 macrophages. On the procedure:
The number of cells was determined, e.g., by counting the cells at the beginning of the experiment and by using the alamar blue method after the seeding. On the day the cells were seeded at the appropriate number, phorbo112-myristate 13-acetate (PMA) was added to the media at a final concentration of about 100 ng/ml to differentiate the THP-1 monocytes into THP-1 macrophages.

For data set [3], the system named is THP1 macrophages. In words: TNF-α release (ELISA) from THP1 macrophages seeded on SP1 particles, LPS plus drug. Format: cell-based, human. On the procedure: To assess inflammatory response, a large screen of cytokines and chemokines expressed and produced by THP1 differentiated cells and primary Mφs and DCs were analyzed. Their production and release into the media environment were evaluated using an ELISA sandwich technique. […] TNF-α cytokine release was selected in the experiments described herein because it is the common proinflammatory cytokine produced by Mφs as well as DCs. However, other inflammation-associated cytokines can also be measured.
Background: An ELISA detects its analyte on a solid surface through an enzyme-linked reagent.

Data set [4] concerns primary macrophages. In words: TNF-α release (ELISA) from primary macrophages on SP0.5 particles. The format is cell-based, human. Particulars: dexamethasone ~25 to ~1.5625 μg/ml both time points; simvastatin about 250 to about 31.25 μg/ml at 1 day; nicotine either time point.
For data set [5], the system named is primary macrophages. In words: RT-PCR gene expression (TNF-α, IL-1RA, IL-10) of primary macrophages on SP0.5 particles. Format: cell-based, human. As to conditions: 1 day.
The test system of data set [6] is primary dendritic cells. In words: TNF-α release (ELISA) from primary dendritic cells on SP0.5 particles. The format is cell-based, human. As to conditions: various concentrations, both time points.
The subject of data set [7] is primary dendritic cells. In words: RT-PCR gene expression (IL-1β, IL-1RA, IL-8) of primary dendritic cells on SP0.5 particles. The format is cell-based, human.
In data set [8] the test system is THP-1 monocytes. In words: M1/M2 macrophage marker expression in THP-1 monocytes cultured on silk films functionalized with macrophage-skewing agent. Format: cell-based, human.
Data set [9] in a line: Release of INF-γ from INF-γ embedded silk films (ELISA). The format is physicochemical. On the procedure:
An ELISA was run to show the release rate of INF-γ from the silk films. The films were made from a silk fibroin solution of about 10 μg/m and 0.2 ml used per film (for a total loading of about 2 μg INF-γ). Within one hour a large amount of INF-γ is released but as a percentage of the total loading it is small and by 4 days more INF-γ is released showing that there is a continued or constant release of INF-γ. While the levels of INF-γ release are low, they are physiologically relevant.
FIG. 23 is a line graph showing the release rate of INF-γ from the silk films. The silk films were made from a silk solution at a concentration of about 10 μg/m and about 0.2 ml of the silk solution was used per film (with a loading of about 2 μg INF-γ). As shown in the table of FIG. 23, within one hour an amount of about […] INF-γ was released, which is about 0.02% of the total loading. […] While the levels of INF-γ release appeared to be low, the level is physiologically relevant.

The mark [10] stands for this setting: about 10 μg/ml INF-γ in silk films.

Read-outs that look alike come from different tables or passages of the source.

With `C[C@@H]1C[C@H]2[C@@H]3CCC4=CC(=O)C=C[C@]4(C)[C@@]3(F)[C@@H](O)C[C@]2(C)[C@@]1(O)C(=O)CO` [dexamethasone], the “IL-10 fold change in expression (relative to positive control)” value in data set [1] (1 day, dexamethasone about 12.5 μg/ml) is listed as “above 1 fold”.
As to `CN1CCCC1c1cccnc1` (centres unmarked) [nicotine], the “cytotoxicity (in words)” value is recorded as “cytotoxic” in [2] (dexamethasone ~100 and ~50 μg/ml, simvastatin 250 μg/ml, nicotine 3 mg/ml, both time points); “cytotoxic” in data set [2] (nicotine ~1.5 mg/ml, 3 days). Moreover, the “effect on cell number versus positive and negative controls” value in [2] (non-cytotoxic nicotine concentrations) is “proliferative effect”. The “TNF-α release compared to positive control (LPS), high concentrations” value in [3] (dexamethasone ~100 and ~50 μg/ml, simvastatin higher concentration, nicotine above 750 μg/ml, both time points) was “more TNF-α was released than the positive control”. Also, the results for the “TNF-α release compared to LPS control” value in [4] and in data set [6] were “no significant decrease” and “the same as observed with macrophages”, respectively. The TNF-α gene expression entry in data set [5] (dexamethasone, simvastatin 125 to 31.25 μg/ml, nicotine 187.5 and 93.75 μg/ml) is listed as “downregulated”; in data set [1] (3 days, dexamethasone vs LPS control, nicotine vs negative control) it was “higher than the negative control”. The IL-10 gene expression result in data set [5] (dexamethasone, simvastatin, nicotine about 750 to about 275 μg/ml) is listed as “high”; in [1] (1 day, dexamethasone vs media control, simvastatin vs positive control, nicotine vs controls), “unregulated”; in data set [1] (3 days, nicotine compared to same concentrations at 1 day), “downregulated”. The IL-1RA gene expression entry in [5] (simvastatin, nicotine about 750 to about 275 μg/ml) is recorded as “high”. Besides, the “gene expression profile (anti-inflammatory or not)” value in data set [7] (1 day, dexamethasone various concentrations, simvastatin ~62.5 μg/ml, nicotine about 46.87 to about 187.5 μg/ml) is given as “no anti-inflammatory profile”; in [7] (5 days), “no anti-inflammatory profile”. Also, the TGF-β gene expression result in data set [1] (3 days, dexamethasone all concentrations except ~25 μg/ml, nicotine compared to same concentrations at 1 day) is given as “downregulated”.
Regarding `CCC(C)(C)C(=O)O[C@H]1C[C@@H](C)C=C2C=C[C@H](C)[C@H](CC[C@@H]3C[C@@H](O)CC(=O)O3)[C@H]21` [simvastatin], the TNF-α release entry in data set [3] (simvastatin ~31.5 μg/ml and less) was “about 0.07 pg/ml”.
Turning to “INF-γ: interferon-gamma loaded or embedded in silk films”, in data set [8] (setting [10]), the “CCL-18 (M2 macrophage marker)” value is “upregulated” and the “CD206 (M2 macrophage marker) relative to control” value is “strongly downregulated”. In addition, the “markers of M1 macrophage (CCL3 and CCR7)” value in data set [8] (about 10 μg/ml INF-γ loaded or embedded in silk films) is listed as “up-regulated”.

B1: INF-γ: interferon-gamma loaded or embedded in silk films (protein, UniProt P01579 24-161, looked up)
Interferon gamma: QDPYVKEAENLKKYFNAGHSDVADNGTLFLGILKNWKEESDRKIMQSQIVSFYFKLFKNFKDDQSIQKSVETIKEDMNVKFFNSNKKKRDDFEKLTNYSVTDLNVQRKAIHELIQVMAELSPAAKTGKRKRSQMLFRG
On to B1, for which the “continued INF-γ release” value in [9] (by day 4) was “More INF-γ was released”. For the same molecule, the “INF-γ released as share of the total loading” value in data set [9] (within one hour) is given as “about 0.02%”. Moreover, the “amount of INF-γ released from silk film” value in data set [9] (within one hour, loading about 2 μg INF-γ per film) was “about 400 μg/ml”.
